From patent US12077503B2, “Substituted cyclic amides and their use as herbicides” (FMC CORPORATION, priority 2015, dated 2024)

What was measured:
Assay type in all cases: in vivo
[1] = tested on: barnyardgrass (Echinochloa crus-galli); test: Test A preemergence
Outline: (§1)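 Treatment is preemergence as a directed soil spray after planting, or postemergence at the one- to two-leaf stage, with test chemical in a non-phytotoxic solvent mixture plus surfactant. Plants stay in the greenhouse about 10 d before visual injury scoring on a 0 to 100 scale versus untreated controls.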

[2] = tested on: ryegrass, Italian (Italian ryegrass, Lolium multiflorum); test: Test A preemergence
Outline: as §1

[3] = tested on: giant foxtail (Setaria faberii); test: Test A preemergence
Outline: as §1

Kochia (Kochia scoparia) [4] = test: Test A preemergence
Outline: as §1

[5] = tested on: pigweed (Amaranthus retroflexus); test: Test A preemergence
[6] = tested on: ragweed (common ragweed, Ambrosia elatior); test: Test A preemergence
Outline: as §1

[7] = tested on: sedge, umbrella (small-flower umbrella sedge, Cyperus difformis); test: Test B flooded paddy test; settings: Flood, 250 g ai/ha, 0 to 100 scale where 0 is no effect and 100 is complete control
Outline: (§2)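 Rating scale 0–100 (visual, vs untreated controls) after a 13–15 d greenhouse period; application to the flood layer, 3 cm above soil and maintained; plants at 2-leaf stage when treated.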

[8] = tested on: barnyardgrass (Echinochloa crus-galli); test: Test B flooded paddy test; settings: Flood, 250 g ai/ha, 0 to 100 scale where 0 is no effect and 100 is complete control
Outline: as §2

[9] = tested on: ducksalad (Heteranthera limosa); test: Test B flooded paddy test; settings: Flood, 250 g ai/ha, 0 to 100 scale where 0 is no effect and 100 is complete control
Outline: as §2

rice (Oryra sativa) = test: Test B flooded paddy test; settings: Flood, 250 g ai/ha, 0 to 100 scale where 0 is no effect and 100 is complete control
Outline: as §2

[10] = tested on: blackgrass (Alopecurus myosuroides); test: Test A postemergence; settings: for Plant response rating, Blackgrass: 0 to 100 scale (0 no effect, 100 complete control)
Outline: as §1

corn (Zea mays) = test: Test A postemergence; settings: for Plant response rating, Corn: 0 to 100 scale (0 no effect, 100 complete control)
Outline: as §1

[11] = tested on: barnyardgrass (Echinochloa crus-galli); test: Test A postemergence; settings: for Plant response rating, Barnyardgrass: 0 to 100 scale (0 no effect, 100 complete control)
Outline: as §1

[12] = tested on: wheat (Triticum aestivum); test: Test A postemergence; settings: postemergence; for Plant response rating, Wheat: 0 to 100 scale (0 no effect, 100 complete control)
Outline: as §1

[13] = tested on: ryegrass, Italian (Italian ryegrass, Lolium multiflorum); test: Test A postemergence; settings: postemergence; for Plant response rating, Ryegrass, Italian: 0 to 100 scale (0 no effect, 100 complete control)
Outline: as §1

[14] = tested on: giant foxtail (Setaria faberii); test: Test A postemergence; settings: for Plant response rating, Foxtail, Giant: 0 to 100 scale (0 no effect, 100 complete control)
Outline: as §1

Kochia (Kochia scoparia) [15] = test: Test A postemergence; settings: for Plant response rating, Kochia: postemergence, 0 to 100 scale (0 no effect, 100 complete control)
Outline: as §1

[16] = tested on: pigweed (Amaranthus retroflexus); test: Test A postemergence; settings: postemergence; for Plant response rating, Pigweed: 0 to 100 scale (0 no effect, 100 complete control)
Outline: as §1

[17] = tested on: Galium (catchweed bedstraw, Galium aparine); test: Test A postemergence; settings: for Plant response rating, Galium: 0 to 100 scale (0 no effect, 100 complete control)
Outline: as §1

[18] = tested on: ragweed (common ragweed, Ambrosia elatior); test: Test A postemergence; settings: postemergence; for Plant response rating, Ragweed: 0 to 100 scale (0 no effect, 100 complete control)
Outline: as §1

[19] = 125 g ai/ha, Preemergence, visual injury after approximately 10 d, 0 to 100 scale where 0 is no effect and 100 is complete control
[20] = 500 g ai/ha, preemergence, 0 to 100 scale, 0 = no effect, 100 = complete control
[21] = 125 g ai/ha, postemergence, visual rating after approx. 10 d
[22] = 500 g ai/ha, postemergence, visual injury, approx. 10 d
[23] = 125 g ai/ha, visual rating after approx. 10 d
[24] = 500 g ai/ha, visual injury, approx. 10 d

Structure (SMILES): Cc1ccc(C2CN(C)C(=O)C2C(=O)Nc2ccccc2S(C)(=O)=O)cc1 (stereo not shown) [Compound 663]
- Plant response rating, Barnyardgrass [1, 19]: 90
- Plant response rating, Barnyardgrass [1, 20]: 100
- Plant response rating, Ryegrass, Italian [2, 19]: 30
- Plant response rating, Ryegrass, Italian [2, 20]: 90
- Plant response rating, Foxtail, Giant [3, 19]: 90
- Plant response rating, Foxtail, Giant [3, 20]: 100
- Plant response rating, Kochia (Kochia (Kochia scoparia) [4]; [19]): 70
- Plant response rating, Kochia (Kochia (Kochia scoparia) [4]; [20]): 80
- Plant response rating, Pigweed [5, 19]: 30
- Plant response rating, Pigweed [5, 20]: 70
- Plant response rating, Ragweed [6, 19]: 30
- Plant response rating, Ragweed [6, 20]: 70
- Plant response rating, Sedge, Umbrella ([7]; 13 to 15 d): 0
- Plant response rating, Barnyardgrass ([8]; 13 to 15 d): 70
- Plant response rating, Ducksalad ([9]; 13 to 15 d): 98
- Plant response rating, Rice (rice (Oryra sativa); 13 to 15 d): 0
- Plant response rating, Blackgrass [10, 21]: 60
- Plant response rating, Blackgrass [10, 22]: 70
- Plant response rating, Corn (corn (Zea mays); [21]): 30
- Plant response rating, Corn (corn (Zea mays); [22]): 80
- Plant response rating, Barnyardgrass [11, 21]: 90
- Plant response rating, Barnyardgrass [11, 22]: 90
- Plant response rating, Wheat [12, 23]: 50
- Plant response rating, Wheat [12, 24]: 70
- Plant response rating, Ryegrass, Italian [13, 23]: 40
- Plant response rating, Ryegrass, Italian [13, 24]: 70
- Plant response rating, Foxtail, Giant [14, 21]: 90
- Plant response rating, Foxtail, Giant [14, 22]: 90
- Plant response rating, Kochia (Kochia (Kochia scoparia) [15]; [23]): 20
- Plant response rating, Kochia (Kochia (Kochia scoparia) [15]; [24]): 60
- Plant response rating, Pigweed [16, 23]: 0
- Plant response rating, Pigweed [16, 24]: 20
- Plant response rating, Galium [17, 21]: 50
- Plant response rating, Galium [17, 22]: 60
- Plant response rating, Ragweed [18, 23]: 30
- Plant response rating, Ragweed [18, 24]: 40

Structure (SMILES): CON1CC[C@H](c2cccc(C(F)(F)F)c2)[C@@H](C(=O)Nc2ccc(F)c(F)c2F)C1=O [Compound 1170]
- pest or weed control at 31 g/ha ([1]; Echinochloa crus-galli, pre-emergence, 240 h, 31 g ai/ha, Preemergence, 0 to 100 scale where 0 is no effect and 100 is complete control, read-out: Barnyardgrass plant response rating): 0%
- pest or weed control at 125 g/ha ([1]; Echinochloa crus-galli, pre-emergence, 240 h, 125 g ai/ha, preemergence, 0 to 100 scale where 0 is no effect and 100 is complete control, approx. 10 d, read-out: Barnyardgrass plant response rating): 40%
- pest or weed control at 31 g/ha ([2]; Lolium multiflorum, pre-emergence, 240 h, 31 g ai/ha, Preemergence, 0 to 100 scale where 0 is no effect and 100 is complete control, read-out: Ryegrass, Italian plant response rating): 0%
- pest or weed control at 125 g/ha ([2]; Lolium multiflorum, pre-emergence, 240 h, 125 g ai/ha, preemergence, 0 to 100 scale where 0 is no effect and 100 is complete control, approx. 10 d, read-out: Ryegrass, Italian plant response rating): 0%
- pest or weed control at 31 g/ha ([3]; Setaria faberi, pre-emergence, 240 h, 31 g ai/ha, Preemergence, 0 to 100 scale where 0 is no effect and 100 is complete control, read-out: Foxtail, Giant plant response rating): 0%
- pest or weed control at 125 g/ha ([3]; Setaria faberi, pre-emergence, 240 h, 125 g ai/ha, preemergence, 0 to 100 scale where 0 is no effect and 100 is complete control, approx. 10 d, read-out: Foxtail, Giant plant response rating): 70%
- pest or weed control at 31 g/ha (Kochia (Kochia scoparia) [4]; Bassia scoparia, pre-emergence, 240 h, 31 g ai/ha, Preemergence, 0 to 100 scale where 0 is no effect and 100 is complete control, read-out: Kochia plant response rating): 0%
- pest or weed control at 125 g/ha (Kochia (Kochia scoparia) [4]; Bassia scoparia, pre-emergence, 240 h, 125 g ai/ha, preemergence, 0 to 100 scale where 0 is no effect and 100 is complete control, approx. 10 d, read-out: Kochia plant response rating): 0%
- pest or weed control at 31 g/ha ([5]; Amaranthus retroflexus, pre-emergence, 240 h, 31 g ai/ha, Preemergence, 0 to 100 scale where 0 is no effect and 100 is complete control, read-out: Pigweed plant response rating): 0%
- pest or weed control at 125 g/ha ([5]; Amaranthus retroflexus, pre-emergence, 240 h, 125 g ai/ha, preemergence, 0 to 100 scale where 0 is no effect and 100 is complete control, approx. 10 d, read-out: Pigweed plant response rating): 0%
- pest or weed control at 31 g/ha ([6]; Ambrosia artemisiifolia, pre-emergence, 240 h, 31 g ai/ha, Preemergence, 0 to 100 scale where 0 is no effect and 100 is complete control, read-out: Ragweed plant response rating): 0%
- pest or weed control at 125 g/ha ([6]; Ambrosia artemisiifolia, pre-emergence, 240 h, 125 g ai/ha, preemergence, 0 to 100 scale where 0 is no effect and 100 is complete control, approx. 10 d, read-out: Ragweed plant response rating): 0%
- pest or weed control at 250 g/ha ([7]; Cyperus difformis, read-out: Sedge, Umbrella plant response rating): 0%
- pest or weed control at 250 g/ha ([8]; Echinochloa crus-galli, read-out: Barnyardgrass plant response rating): 30%
- pest or weed control at 250 g/ha ([9]; Heteranthera limosa, read-out: Ducksalad plant response rating): 40%
- pest or weed control at 250 g/ha (rice (Oryra sativa); Oryza sativa, read-out: Rice plant response rating): 0%
- pest or weed control at 125 g/ha ([10]; Alopecurus myosuroides, post-emergence, 240 h, 125 g ai/ha, postemergence, visual injury vs untreated controls after approx. 10 d, 0 = no effect, 100 = complete control, read-out: Blackgrass plant response rating (0 to 100 scale)): 20%
- pest or weed control at 31 g/ha ([10]; Alopecurus myosuroides, post-emergence, 240 h, Postemergence, 31 g ai/ha, visual injury after approx. 10 d, 0 to 100 scale, 0 no effect, 100 complete control, read-out: Plant response rating, Blackgrass): 0%
- plant injury at 125 g/ha (corn (Zea mays); Zea mays, post-emergence, 240 h, 125 g ai/ha, postemergence, visual injury vs untreated controls after approx. 10 d, 0 = no effect, 100 = complete control, read-out: Corn plant response rating (0 to 100 scale)): 0%
- Corn plant response rating (crop injury, 0 = no effect, 100 = complete kill) at 31 g/ha (corn (Zea mays); Zea mays, post-emergence, 240 h, Postemergence, 31 g ai/ha, visual injury after approx. 10 d, 0 to 100 scale, 0 no effect, 100 complete control): 0%
- pest or weed control at 125 g/ha ([11]; Echinochloa crus-galli, post-emergence, 240 h, 125 g ai/ha, postemergence, visual injury vs untreated controls after approx. 10 d, 0 = no effect, 100 = complete control, read-out: Barnyardgrass plant response rating (0 to 100 scale)): 60%
- pest or weed control at 31 g/ha ([11]; Echinochloa crus-galli, post-emergence, 240 h, Postemergence, 31 g ai/ha, visual injury after approx. 10 d, 0 to 100 scale, 0 no effect, 100 complete control, read-out: Plant response rating, Barnyardgrass): 0%
- plant injury at 125 g/ha ([12]; Triticum aestivum, post-emergence, 240 h, 125 g ai/ha, visual injury vs untreated controls after approx. 10 d, 0 = no effect, 100 = complete control, read-out: Wheat plant response rating (0 to 100 scale)): 0%
- pest or weed control at 125 g/ha ([13]; Lolium multiflorum, post-emergence, 240 h, 125 g ai/ha, visual injury vs untreated controls after approx. 10 d, 0 = no effect, 100 = complete control, read-out: Ryegrass, Italian plant response rating (0 to 100 scale)): 0%
- pest or weed control at 125 g/ha ([14]; Setaria faberi, post-emergence, 240 h, 125 g ai/ha, postemergence, visual injury vs untreated controls after approx. 10 d, 0 = no effect, 100 = complete control, read-out: Foxtail, Giant plant response rating (0 to 100 scale)): 60%
- pest or weed control at 31 g/ha ([14]; Setaria faberi, post-emergence, 240 h, Postemergence, 31 g ai/ha, visual injury after approx. 10 d, 0 to 100 scale, 0 no effect, 100 complete control, read-out: Plant response rating, Foxtail, Giant): 0%
- pest or weed control at 31 g/ha (Kochia (Kochia scoparia) [15]; Bassia scoparia, post-emergence, 240 h, Postemergence, 31 g ai/ha, visual injury after approx. 10 d, 0 to 100 scale, 0 no effect, 100 complete control, read-out: Plant response rating, Kochia): 0%
- pest or weed control at 125 g/ha ([16]; Amaranthus retroflexus, post-emergence, 240 h, 125 g ai/ha, visual injury vs untreated controls after approx. 10 d, 0 = no effect, 100 = complete control, read-out: Pigweed plant response rating (0 to 100 scale)): 0%
- pest or weed control at 125 g/ha ([17]; Galium, post-emergence, 240 h, 125 g ai/ha, postemergence, visual injury vs untreated controls after approx. 10 d, 0 = no effect, 100 = complete control, read-out: Galium plant response rating (0 to 100 scale)): 30%
- pest or weed control at 31 g/ha ([17]; Galium, post-emergence, 240 h, Postemergence, 31 g ai/ha, visual injury after approx. 10 d, 0 to 100 scale, 0 no effect, 100 complete control, read-out: Plant response rating, Galium): 20%
- pest or weed control at 125 g/ha ([18]; Ambrosia artemisiifolia, post-emergence, 240 h, 125 g ai/ha, visual injury vs untreated controls after approx. 10 d, 0 = no effect, 100 = complete control, read-out: Ragweed plant response rating (0 to 100 scale)): 0%
